In US10188634B2, “3-(3H-imidazo[4,5-C]pyridin-2-yl)-1 H-pyrazolo[4,3-B]pyridines and therapeutic uses thereof” (Samumed, LLC, priority 2015, dated 2019) one finds EC50 and inhibition data, which are given here for 17 molecules.

pEC50: −log10 of the molar value.

The pEC50 is the EC50 on a negative log10 scale, so that one unit is a factor of ten. For orientation: inhibition means the percentage by which the read-out fell short of the control.

What all share (format): cell-based
For one test, the system named is IL-6 in THP-1 cells. As to the kind of experiment: Inhibition of IL-6 in LPS-stimulated THP-1 human monocyte cells (HTRF). Conditions: IL-6 HTRF; for pEC50: 500 ng/mL LPS, 22 hours; for inhibition at 10 µM: LPS, read-out: percent inhibition in brackets (given for EC50 >10 μM). In short, it runs like this: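 IL-6 was quantified by HTRF ratio after LPS (500 ng/mL, 22 h) stimulation of THP-1 monocytes pretreated 2 h with compound, 10-point 1:3 dilutions from 10 μM, 0.1% DMSO. Cells were held in 1% FBS for 24 h beforehand. Values normalised to DMSO; four-parameter EC50, or % inhibition at 10 μM above that.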
For orientation: Time-resolved FRET reads energy transfer from a long-lived donor to a nearby acceptor.

A further test has as its system SW480 colon cancer cells. As to the kind of experiment: Cell viability assay (CellTiter-Blue) in SW480 colon cancer cells. The settings on record: Homo sapiens, 96 h; for inhibition at 10 µM: four days, CellTiter-Blue, read-out: percent inhibition at 10 μM (given for EC50 of >10 μM); for pEC50: four days incubation, CellTiter-Blue cell viability. The method in brief: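 Four-day exposure of SW480 cells (~2×10^3/well) to compound from 10 μM down to 0.004 μM in 1:3 steps, in duplicate. Resorufin fluorescence from CellTiter-Blue after ~3 h served as the viability read-out. EC50 values came from nonlinear curve fits, with % inhibition at 10 μM given where EC50 >10 μM.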
(The colour change of resazurin is a common sign of viable cells or microbes.)

Test [1] has as its system Wnt activity (Sp5-Luc reporter, human Sp5 promoter with eight TCF/LEF binding sites) in SW480 colon carcinoma cells. Nature of the test: Screening assay for Wnt activity: Sp5-Luc reporter gene assay in SW480 cells. The settings on record: for inhibition at 10 µM: read-out: percent inhibition at 10 μM (given for EC50 of >10 μM); for pEC50: 10-point dose-response starting from 10 μM, overnight incubation. The method in brief:
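Luminescence (BrightGlo) read after overnight 37 °C exposure of Sp5-Luc SW480 reporter cells, 4,000/well in 1% FBS, to compound dosed 1:3 over 10 points from 10 μM with 0.1% DMSO. Values normalized to DMSO-only cells, fitted with variable-slope four-parameter model; where EC50 exceeds 10 μM, % inhibition at 10 μM reported.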
In general terms: In a reporter assay the amount or activity of a reporter protein is the signal.

For the molecule `NC1CN(c2cncc(-c3ccc4[nH]nc(-c5nc6c(-c7ccc(Cl)s7)cncc6[nH]5)c4n3)n2)C1` [Compound 1023, 1-(6-(3-(7-(5-Chlorothiophen-2-yl)-3H-imidazo[4,5-c]pyridin-2-yl)-1H-pyrazolo[4,3-b]pyridin-5-yl)pyrazin-2-yl)azetidin-3-amine], the figures for the pEC50 (with IL-6 in THP-1 cells; in the test on SW480 colon cancer cells; in test [1]) were 7.01, < 5.00 and < 5.00, respectively. Also, the inhibition at 10 µM with SW480 colon cancer cells turned out to be 7.4%; in test [1], 24.3%.

For `CCC(=O)Nc1cncc(-c2ccc3[nH]nc(-c4nc5c(-c6cccc(F)c6)cncc5[nH]4)c3n2)c1` [Compound 1, N-(5-(3-(7-(3-Fluorophenyl)-3H-imidazo[4,5-c]pyridin-2-yl)-1H-pyrazolo[4,3-b]pyridin-5-yl)pyridin-3-yl)propionamide], the pEC50 (in the test on IL-6 in THP-1 cells; in the test on SW480 colon cancer cells; in test [1]) was < 5.00 throughout. Moreover, the values for the inhibition at 10 µM (with IL-6 in THP-1 cells; in the test on SW480 colon cancer cells; in test [1]) were 25.8%, 0% and 12.3%, respectively.

As for `Fc1cccc(-c2cncc3[nH]c(-c4n[nH]c5ccc(C6CCNCC6)nc45)nc23)c1` [Compound 477, 3-(7-(3-Fluorophenyl)-3H-imidazo[4,5-c]pyridin-2-yl)-5-(piperidin-4-yl)-1H-pyrazolo[4,3-b]pyridine], the pEC50 (in the test on IL-6 in THP-1 cells; with SW480 colon cancer cells; in test [1]) was < 5.00 in each case. Moreover, the results for the inhibition at 10 µM (in the test on IL-6 in THP-1 cells; in the test on SW480 colon cancer cells; in test [1]) were 13%, 1.8% and 20%, respectively.

With `Cn1cc(-c2ccc3[nH]nc(-c4nc5c(-c6cccc(F)c6)cncc5[nH]4)c3n2)cn1` [Compound 480, 3-(7-(3-Fluorophenyl)-3H-imidazo[4,5-c]pyridin-2-yl)-5-(1-methyl-1H-pyrazol-4-yl)-1H-pyrazolo[4,3-b]pyridine], the pEC50 (in the test with IL-6 in THP-1 cells; with SW480 colon cancer cells; in test [1]) was < 5.00 in each case. For the same molecule, the inhibition at 10 µM is 9.7% in the test with IL-6 in THP-1 cells, 1.7% in the test on SW480 colon cancer cells and 13% in test [1].

For the molecule `CCCC(=O)Nc1cncc(-c2ccc3[nH]nc(-c4nc5c(-c6cc(F)cc(CNS(C)(=O)=O)c6)cncc5[nH]4)c3n2)c1` [Compound 465, N-(5-(3-(7-(3-Fluoro-5-(methylsulfonamidomethyl)phenyl)-3H-imidazo[4,5-c]pyridin-2-yl)-1H-pyrazolo[4,3-b]pyridin-5-yl)pyridin-3-yl)butyramide], the pEC50 (with IL-6 in THP-1 cells; in the test on SW480 colon cancer cells; in test [1]) was < 5.00 in each case. The inhibition at 10 µM was found to be 28.6% in the test on IL-6 in THP-1 cells, 1.8% in the test on SW480 colon cancer cells and 28% in test [1].

Turning to `O=C(Nc1cncc(-c2ccc3[nH]nc(-c4nc5c(-c6cccs6)cncc5[nH]4)c3n2)c1)C1CC1` [Compound 328, N-(5-(3-(7-(Thiophen-2-yl)-3H-imidazo[4,5-c]pyridin-2-yl)-1H-pyrazolo[4,3-b]pyridin-5-yl)pyridin-3-yl)cyclopropanecarboxamide], the pEC50 (with IL-6 in THP-1 cells; in the test on SW480 colon cancer cells; in test [1]) was < 5.00 each time. For the same molecule, the inhibition at 10 µM in the test with IL-6 in THP-1 cells came out at 40.6%; with SW480 colon cancer cells, 10%; in test [1] it was 3.7%.

Consider `CC(C)(C)CC(=O)Nc1cncc(-c2ccc3[nH]nc(-c4nc5c(-c6ccccc6F)cncc5[nH]4)c3n2)c1` [Compound 72, N-(5-(3-(7-(2-fluorophenyl)-3H-imidazo[4,5-c]pyridin-2-yl)-1H-pyrazolo[4,3-b]pyridin-5-yl)pyridin-3-yl)-3,3-dimethylbutanamide], for which the pEC50 (in the test on IL-6 in THP-1 cells; with SW480 colon cancer cells; in test [1]) was < 5.00 throughout. The inhibition at 10 µM was determined as 29.8% with IL-6 in THP-1 cells, 9.8% in the test on SW480 colon cancer cells and 5.7% in test [1].

`COc1cccc(-c2cncc3[nH]c(-c4n[nH]c5ccc(-c6cncc(NC(=O)CC(C)(C)C)c6)nc45)nc23)c1` [Compound 961, N-(5-(3-(7-(3-methoxylphenyl)-3H-imidazo[4,5-c]pyridin-2-yl)-1H-pyrazolo[4,3-b]pyridin-5-yl)pyridin-3-yl)-3,3-dimethylbutanamide]: the pEC50 (with IL-6 in THP-1 cells; in the test with SW480 colon cancer cells; in test [1]) was < 5.00 throughout. The inhibition at 10 µM in the test on IL-6 in THP-1 cells stood at 22.5%; with SW480 colon cancer cells, 0.4%; in test [1], 0%.

`Nc1cncc(-c2ccc3[nH]nc(-c4nc5c(-c6ccccc6F)cncc5[nH]4)c3n2)c1` [Compound 59, 5-(3-(7-(2-Fluorophenyl)-3H-imidazo[4,5-c]pyridin-2-yl)-1H-pyrazolo[4,3-b]pyridin-5-yl)pyridin-3-amine]: the figures for the negative logarithm of the EC50 (pEC50) (in the test with IL-6 in THP-1 cells; in the test with SW480 colon cancer cells; in test [1]) were 7.03, < 5.00 and < 5.00, respectively. For the same molecule, the inhibition at 10 µM in the test with SW480 colon cancer cells came to 0%; in test [1], 7%.

Consider `CN1CCN(c2cncc3[nH]c(-c4n[nH]c5ccc(-c6cncc(N)c6)nc45)nc23)CC1` [Compound 227, 5-(3-(7-(4-Methylpiperazin-1-yl)-3H-imidazo[4,5-c]pyridin-2-yl)-1H-pyrazolo[4,3-b]pyridin-5-yl)pyridin-3-amine], for which the pEC50 (in the test with IL-6 in THP-1 cells; in the test on SW480 colon cancer cells; in test [1]) was < 5.00 in each case. Also, the inhibition at 10 µM was found to be 38% in the test on IL-6 in THP-1 cells, 0% with SW480 colon cancer cells and 16.3% in test [1].

With `O=C(Nc1cncc(-c2ccc3[nH]nc(-c4nc5c(-c6ccccn6)cncc5[nH]4)c3n2)c1)c1ccccc1` [Compound 151, N-(5-(3-(7-(Pyridin-2-yl)-3H-imidazo[4,5-c]pyridin-2-yl)-1H-pyrazolo[4,3-b]pyridin-5-yl)pyridin-3-yl)benzamide], the pEC50 (with IL-6 in THP-1 cells; in the test with SW480 colon cancer cells; in test [1]) was < 5.00 throughout. Further, the inhibition at 10 µM came out at 20.3% in the test on IL-6 in THP-1 cells, 16.9% with SW480 colon cancer cells and 23.9% in test [1].

Turning to `COc1cccc(-c2cncc3[nH]c(-c4n[nH]c5ccc(-c6cncc(O)c6)nc45)nc23)c1` [Compound 985, 5-(3-(7-(3-Methoxylphenyl)-3H-imidazo[4,5-c]pyridin-2-yl)-1H-pyrazolo[4,3-b]pyridin-5-yl)pyridin-3-ol], the pEC50 in the test on IL-6 in THP-1 cells was 5.87; in the test on SW480 colon cancer cells it was < 5.00; in test [1], < 5.00. Further, the results for the inhibition at 10 µM (with SW480 colon cancer cells; in test [1]) were 7.1% and 7.8%, respectively.

`Fc1ccc(-c2cncc3[nH]c(-c4n[nH]c5ccc(-c6cncnc6)nc45)nc23)cc1` [Compound 55, 3-(7-(4-Fluorophenyl)-3H-imidazo[4,5-c]pyridin-2-yl)-5-(pyrimidin-5-yl)-1H-pyrazolo[4,3-b]pyridine]: the pEC50 (in the test with IL-6 in THP-1 cells; in the test with SW480 colon cancer cells; in test [1]) was < 5.00 in each case. The results for the inhibition at 10 µM (in the test on IL-6 in THP-1 cells; in the test with SW480 colon cancer cells; in test [1]) were 13.4%, 0% and 18%, respectively.

`Cn1cc(-c2ccc3[nH]nc(-c4nc5c(-c6cccs6)cncc5[nH]4)c3n2)cn1` [Compound 656, 5-(1-Methyl-1H-pyrazol-4-yl)-3-(7-(thiophen-2-yl)-3H-imidazo[4,5-c]pyridin-2-yl)-1H-pyrazolo[4,3-b]pyridine]: the pEC50 (in the test with IL-6 in THP-1 cells; in the test with SW480 colon cancer cells; in test [1]) was < 5.00 each time. Moreover, the inhibition at 10 µM came out at 14.8% with IL-6 in THP-1 cells, 1.3% with SW480 colon cancer cells and 3% in test [1].

With `Oc1cncc(-c2ccc3[nH]nc(-c4nc5c(-c6cccc(F)c6)cncc5[nH]4)c3n2)c1` [Compound 489, 5-(3-(7-(3-Fluorophenyl)-3H-imidazo[4,5-c]pyridin-2-yl)-1H-pyrazolo[4,3-b]pyridin-5-yl)pyridin-3-ol], the negative-log EC50 (pEC50) (in the test on IL-6 in THP-1 cells; with SW480 colon cancer cells; in test [1]) was < 5.00 throughout. Moreover, the inhibition at 10 µM stood at 43.3% with IL-6 in THP-1 cells, 3.7% with SW480 colon cancer cells and 27% in test [1].

For the molecule `CCNCc1cncc(-c2ccc3[nH]nc(-c4nc5c(-c6ccoc6)cncc5[nH]4)c3n2)c1` [Compound 286, N-((5-(3-(7-(Furan-3-yl)-3H-imidazo[4,5-c]pyridin-2-yl)-1H-pyrazolo[4,3-b]pyridin-5-yl)pyridin-3-yl)methyl)ethanamine], the negative logarithm of the EC50 (pEC50) with IL-6 in THP-1 cells was < 5.00; in the test with SW480 colon cancer cells, 5.67; in test [1] it was < 5.00. Moreover, the inhibition at 10 µM was 14.5% in the test with IL-6 in THP-1 cells and 37.4% in test [1].

As for `CN(C)Cc1cncc(-c2ccc3[nH]nc(-c4nc5c(N6CCCCC6)cncc5[nH]4)c3n2)c1` [Compound 181, N,N-Dimethyl-1-(5-(3-(7-(piperidin-1-yl)-3H-imidazo[4,5-c]pyridin-2-yl)-1H-pyrazolo[4,3-b]pyridin-5-yl)pyridin-3-yl)methanamine], the values for the pEC50 (in the test with IL-6 in THP-1 cells; in the test with SW480 colon cancer cells; in test [1]) were 5.22, 5.11 and < 5.00, respectively. Further, the inhibition at 10 µM in test [1] amounted to 33.1%.
